Experimental data published in ChEMBL document CHEMBL5380795, “Design, Synthesis, and Bioactivity Investigation of Cyclic Lipopeptide Antibiotics Containing Eight to Nine Amino Acids” (J Med Chem, 2023).
Values after ≈ are worked out from the molar mass of the structure shown.

Tests used:
[1] = system: Staphylococcus aureus; assay: Antibacterial activity against methicillin resistant Staphylococcus aureus ATCC 33591 assessed as inhibition of bacterial growth incubated for 18 to 24 hrs by broth microdilution method; assay type: functional; settings: time 18-24 hrs
[2] = system: Staphylococcus aureus; assay: Antibacterial activity against Staphylococcus aureus ATCC 29213 assessed as inhibition of bacterial growth incubated for 18 to 24 hrs by broth microdilution method; assay type: functional; settings: time 18-24 hrs
[3] = system: Staphylococcus epidermidis; assay: Antibacterial activity against methicillin resistant Staphylococcus epidermidis clinical isolate 19-5 assessed as inhibition of bacterial growth incubated for 18 to 24 hrs by broth microdilution method; assay type: functional; settings: time 18-24 hrs
[4] = system: Staphylococcus epidermidis; assay: Antibacterial activity against methicillin resistant Staphylococcus epidermidis clinical isolate 19-6 assessed as inhibition of bacterial growth incubated for 18 to 24 hrs by broth microdilution method; assay type: functional; settings: time 18-24 hrs
[5] = system: Escherichia coli; assay: Antibacterial activity against Escherichia coli ATCC BAA-2523 assessed as inhibition of bacterial growth incubated for 18 to 24 hrs by broth microdilution method; assay type: functional; settings: time 18-24 hrs
[6] = system: Escherichia coli; assay: Antibacterial activity against Escherichia coli NCTC 13353 assessed as inhibition of bacterial growth incubated for 18 to 24 hrs by broth microdilution method; assay type: functional; settings: time 18-24 hrs
[7] = system: Escherichia coli; assay: Antibacterial activity against Escherichia coli clinical isolate 19-2 assessed as inhibition of bacterial growth incubated for 18 to 24 hrs by broth microdilution method; assay type: functional; settings: time 18-24 hrs
[8] = system: Escherichia coli; assay: Antibacterial activity against KPC producing Escherichia coli ATCC BAA-2340 assessed as inhibition of bacterial growth incubated for 18 to 24 hrs by broth microdilution method; assay type: functional; settings: time 18-24 hrs
[9] = system: Klebsiella pneumoniae; assay: Antibacterial activity against carbapenem resistant Klebsiella pneumoniae clinical isolate 19-15 assessed as inhibition of bacterial growth incubated for 18 to 24 hrs by broth microdilution method; assay type: functional; settings: time 18-24 hrs
[10] = system: Klebsiella pneumoniae; assay: Antibacterial activity against carbapenem resistant Klebsiella pneumoniae clinical isolate 19-17 assessed as inhibition of bacterial growth incubated for 18 to 24 hrs by broth microdilution method; assay type: functional; settings: time 18-24 hrs
[11] = system: Klebsiella pneumoniae; assay: Antibacterial activity against KPC producing Klebsiella pneumoniae ATCC BAA-1705 assessed as inhibition of bacterial growth incubated for 18 to 24 hrs by broth microdilution method; assay type: functional; settings: time 18-24 hrs
[12] = system: Pseudomonas aeruginosa; assay: Antibacterial activity against Pseudomonas aeruginosa clinical isolate 19-1 assessed as inhibition of bacterial growth incubated for 18 to 24 hrs by broth microdilution method; assay type: functional; settings: time 18-24 hrs
[13] = system: Pseudomonas aeruginosa; assay: Antibacterial activity against carbapenem resistant Pseudomonas aeruginosa clinical isolate 19-3 assessed as inhibition of bacterial growth incubated for 18 to 24 hrs by broth microdilution method; assay type: functional; settings: time 18-24 hrs
[14] = system: Pseudomonas aeruginosa; assay: Antibacterial activity against carbapenem resistant Pseudomonas aeruginosa clinical isolate 17-1 assessed as inhibition of bacterial growth incubated for 18 to 24 hrs by broth microdilution method; assay type: functional; settings: time 18-24 hrs
[15] = system: Pseudomonas aeruginosa; assay: Antibacterial activity against Pseudomonas aeruginosa ATCC 27853 assessed as inhibition of bacterial growth incubated for 18 to 24 hrs by broth microdilution method; assay type: functional; settings: time 18-24 hrs
[16] = system: Acinetobacter baumannii; assay: Antibacterial activity against carbapenem resistant Acinetobacter baumannii clinical isolate 19-8 assessed as inhibition of bacterial growth incubated for 18 to 24 hrs by broth microdilution method; assay type: functional; settings: time 18-24 hrs
[17] = system: Acinetobacter baumannii; assay: Antibacterial activity against oxacillinase-27 producing Acinetobacter baumannii NCTC 13304 assessed as inhibition of bacterial growth incubated for 18 to 24 hrs by broth microdilution method; assay type: functional; settings: time 18-24 hrs
[18] = Cytotoxicity against human HK-2 cells assessed as inhibition of cell growth incubated for 72 hrs by CCK-8 assay; assay type: toxicity, cell-based
[19] = Selectivity index, ratio of IC50 for cytotoxicity against human HK-2 cells to MIC for antibacterial activity against Escherichia coli ATCC BAA-2523; assay type: toxicity, cell-based

SMILES | MIC [1] | MIC [2] | MIC [3] | MIC [4] | MIC [5] | MIC [6] | MIC [7] | MIC [8] | MIC [9] | MIC [10] | MIC [11] | MIC [12] | MIC [13] | MIC [14] | MIC [15] | MIC [16] | MIC [17] | IC50 at 72 h [18] | selectivity ratio [19]
CCCCCCCCCC(=O)N[C@H](CCN)C(=O)N[C@H]1CCNC(=O)[C@H]([C@@H](C)O)NC(=O)[C@H](CCN)NC(=O)[C@H](CCN)NC(=O)[C@@H](CC(C)C)NC(=O)[C@@H](CC(C)C)NC(=O)[C@H](CCN)NC1=O | > 64 mg/L | > 64 mg/L | 2 mg/L (≈ 2.04 µM) | 32 mg/L (≈ 32.6 µM) | 64 mg/L (≈ 65.2 µM) | 64 mg/L (≈ 65.2 µM) | 64 mg/L (≈ 65.2 µM) | 64 mg/L (≈ 65.2 µM) | 64 mg/L (≈ 65.2 µM) | > 64 mg/L | > 64 mg/L | 64 mg/L (≈ 65.2 µM) | 64 mg/L (≈ 65.2 µM) | 64 mg/L (≈ 65.2 µM) | 64 mg/L (≈ 65.2 µM) | > 64 mg/L | > 64 mg/L | 87.5 mg/L (≈ 89.1 µM) | 1.4
CC[C@H](C)CCCCC(=O)N[C@H](CCN)C(=O)N[C@H]1CCNC(=O)[C@H](CC(C)C)NC(=O)[C@H](CCN)NC(=O)[C@H](CCN)NC(=O)[C@H](CC(C)C)NC(=O)[C@@H](CC(C)C)NC(=O)[C@H](CCN)NC1=O | > 64 mg/L | > 64 mg/L | 4 mg/L (≈ 4.08 µM) | 16 mg/L (≈ 16.3 µM) | 8 mg/L (≈ 8.16 µM) | 16 mg/L (≈ 16.3 µM) | 32 mg/L (≈ 32.6 µM) | 1 mg/L (≈ 1.02 µM) | 8 mg/L (≈ 8.16 µM) | 8 mg/L (≈ 8.16 µM) | 1 mg/L (≈ 1.02 µM) | 2 mg/L (≈ 2.04 µM) | 2 mg/L (≈ 2.04 µM) | 1 mg/L (≈ 1.02 µM) | 1 mg/L (≈ 1.02 µM) | 8 mg/L (≈ 8.16 µM) | 8 mg/L (≈ 8.16 µM) | 86.9 mg/L (≈ 88.6 µM) | 10.9
CCCCCCCCCC(=O)N[C@H](CCN)C(=O)N[C@H]1CCNC(=O)[C@H](CC(C)C)NC(=O)[C@H](CCN)NC(=O)[C@H](CCN)NC(=O)[C@H](CC(C)C)NC(=O)[C@@H](CC(C)C)NC(=O)[C@H](CCN)NC1=O | 64 mg/L (≈ 64.4 µM) | 32 mg/L (≈ 32.2 µM) | 2 mg/L (≈ 2.01 µM) | 8 mg/L (≈ 8.05 µM) | 16 mg/L (≈ 16.1 µM) | 16 mg/L (≈ 16.1 µM) | 16 mg/L (≈ 16.1 µM) | 4 mg/L (≈ 4.02 µM) | 8 mg/L (≈ 8.05 µM) | 16 mg/L (≈ 16.1 µM) | 2 mg/L (≈ 2.01 µM) | 2 mg/L (≈ 2.01 µM) | 8 mg/L (≈ 8.05 µM) | 2 mg/L (≈ 2.01 µM) | 1 mg/L (≈ 1.01 µM) | 4 mg/L (≈ 4.02 µM) | 8 mg/L (≈ 8.05 µM) | 53.5 mg/L (≈ 53.8 µM) | 3.3
CCCCCCCCCC(=O)N[C@H](CCN)C(=O)N[C@H]1CCNC(=O)[C@H](Cc2ccccc2)NC(=O)[C@H](CCN)NC(=O)[C@H](CCN)NC(=O)[C@H](Cc2ccccc2)NC(=O)[C@@H](CC(C)C)NC(=O)[C@H](CCN)NC1=O | 16 mg/L (≈ 15.1 µM) | 8 mg/L (≈ 7.53 µM) | 1 mg/L (≈ 0.941 µM) | 1 mg/L (≈ 0.941 µM) | 8 mg/L (≈ 7.53 µM) | 8 mg/L (≈ 7.53 µM) | 4 mg/L (≈ 3.77 µM) | 8 mg/L (≈ 7.53 µM) | 8 mg/L (≈ 7.53 µM) | 8 mg/L (≈ 7.53 µM) | 1 mg/L (≈ 0.941 µM) | 4 mg/L (≈ 3.77 µM) | 4 mg/L (≈ 3.77 µM) | 8 mg/L (≈ 7.53 µM) | 8 mg/L (≈ 7.53 µM) | 16 mg/L (≈ 15.1 µM) | 16 mg/L (≈ 15.1 µM) | 43.1 mg/L (≈ 40.6 µM) | 5.4
CCCCCCC[C@@H](O)CC(=O)N[C@H](CCN)C(=O)N[C@H]1CCNC(=O)[C@H]([C@@H](C)O)NC(=O)[C@H](CCN)NC(=O)[C@H](CCN)NC(=O)[C@H](CC(C)C)NC(=O)[C@@H](CC(C)C)NC(=O)[C@H](CCN)NC1=O | > 64 mg/L | > 64 mg/L | 16 mg/L (≈ 16 µM) | 64 mg/L (≈ 64.1 µM) | 4 mg/L (≈ 4.01 µM) | 16 mg/L (≈ 16 µM) | 8 mg/L (≈ 8.01 µM) | 8 mg/L (≈ 8.01 µM) | 16 mg/L (≈ 16 µM) | 8 mg/L (≈ 8.01 µM) | 2 mg/L (≈ 2 µM) | 0.5 mg/L (≈ 0.501 µM) | 1 mg/L (≈ 1 µM) | 0.5 mg/L (≈ 0.501 µM) | 0.5 mg/L (≈ 0.501 µM) | 64 mg/L (≈ 64.1 µM) | 64 mg/L (≈ 64.1 µM) | 206 mg/L (≈ 206 µM) | 51.5
CCCCCCCCCC(=O)N[C@H](CCN)C(=O)N[C@H]1CCNC(=O)[C@H]([C@@H](C)O)NC(=O)[C@H](CCN)NC(=O)[C@H](CCN)NC(=O)[C@H](CC(C)C)NC(=O)[C@@H](Cc2ccccc2Cl)NC(=O)[C@H](CCN)NC1=O | > 64 mg/L | 64 mg/L (≈ 60.9 µM) | 4 mg/L (≈ 3.81 µM) | 2 mg/L (≈ 1.9 µM) | 2 mg/L (≈ 1.9 µM) | 8 mg/L (≈ 7.61 µM) | 2 mg/L (≈ 1.9 µM) | 2 mg/L (≈ 1.9 µM) | 4 mg/L (≈ 3.81 µM) | 4 mg/L (≈ 3.81 µM) | 2 mg/L (≈ 1.9 µM) | 2 mg/L (≈ 1.9 µM) | 2 mg/L (≈ 1.9 µM) | 64 mg/L (≈ 60.9 µM) | 32 mg/L (≈ 30.5 µM) | 64 mg/L (≈ 60.9 µM) | 32 mg/L (≈ 30.5 µM) | 54.6 mg/L (≈ 52 µM) | 27.3
